In publication PMC5015959, “The Binding of Plasmodium falciparum Adhesins and Erythrocyte Invasion Proteins to Aldolase Is Enhanced by Phosphorylation” (PLoS ONE, 2016):
Where no end group is shown, it is not given here. The star is where a group is joined. Biotin = O=C1N[C@H]2[C@H](CS[C@H]2CCCCC(=O)*)N1

Legend:
P. falciparum aldolase = biological target: T1, P. falciparum aldolase (Plasmodium falciparum, UniProt Q7KQL9); experiment: biochemical; format: binding; conditions: for increase in affinity for aldolase following phosphorylation: phosphorylated versus unmodified CTD, from Kd values of Table 3
T1 construct: made in house
Source text: CTDs of four classes of type 1 membrane protein (AMA1 and the TRAP, EBL and RH families) that are potential adhesins or host cell invasion proteins derived from apical organelles, and present in the merozoite plasma membrane during invasion, were examined for their ability to bind to aldolase using bio-layer interferometry. Streptavidin-coated biosensors were loaded with biotinylated synthetic peptides or recombinant proteins representing either the full length CTDs or shorter C-terminal sequences (Table 1) and titrated with increasing aldolase concentrations. This analysis enabled the calculation of a dissociation constant (Kd) for each pair of proteins as a measure of the strength of interaction between them.
The effect of the CTD phosphorylation on aldolase binding was investigated using biolayer interferometry using phosphorylated synthetic peptides or peptides phosphorylated in vitro (Table 3).
Protein interactions were analysed by biolayer interferometry using the Octet Red system (ForteBio) at 25°C in 96-well microplates, as described previously. All assays were performed in 100 mM Tris-HCl pH 8.0, according to the manufacturer’s instructions. A baseline was established over 1 min, and biotinylated samples were loaded onto streptavidin sensors for 1 min. The sensors were washed for 1 min and then incubated with aldolase at different concentrations (0.05–250 μM) for 1 min, followed by a dissociation phase over 5 min. The experiments were performed in duplicate or triplicate depending on the experiment. The data were analysed as described previously.

CK2 = experiment: In vitro phosphorylation of CTDs by CK2; format: biochemical; conditions: 10 μM kinase, 100 μM substrate, 1 mM ATP, 30°C, 3 hours; ES-MS and CID
Method: The phosphorylation of MTRAP and TRAP CTDs expressed as fusion proteins with GST was evaluated in vitro by ^32P incorporation (Fig 1A) and by electrospray (ES) mass spectrometry and collision-induced dissociation (CID) fragmentation analysis. […] MTRAP CTD produced as either a recombinant protein or as a synthetic peptide was also phosphorylated by PKA at the same two positions (S2A Fig). […] Using ES-MS and CID it was determined that both CDPK1 and PKA phosphorylated AMA1 at Ser610 (S1B and S2B Figs), the residue implicated in earlier studies. […] CDPK1 but not PKA phosphorylated EBA140 (Table 2, S2E Fig), the exact sites of which were not determined (S1E Fig). […]
(§1) Phosphorylation assays were performed using 10 μM recombinant CDPK1 [37], PKA (Promega), or CK2 (New England Biolabs) in kinase buffer (20 mM Tris-HCl pH 8.0, 20 mM MgCl2, with or without 1 mM CaCl2) and 1 mM ATP at 30°C for 3 hours with 100 μM substrate protein. Products were analysed by mass spectrometry and used in binding assays (see below). […]
Non-phosphorylated, phosphorylated and biotinylated polypeptides were analysed by electrospray (ES)-mass spectrometry and collision-induced dissociation (CID) fragmentation pathway analysis. […] Phosphorylation sites were determined using stand-alone nanospray on an LTQ Orbitrap Velos (Thermo Fisher Scientific). […]

CDPK1 = experiment: In vitro phosphorylation of CTDs by CDPK1; format: biochemical; design: key: Phosphorylation (+) was confirmed by electrospray-mass spectrometry; conditions: 10 μM kinase, 100 μM substrate, 1 mM ATP, 30°C, 3 hours; electrospray-mass spectrometry
Method: To examine whether or not phosphorylation affected the ability of the CTDs to bind aldolase, we first looked at their ability to be phosphorylated by serine/threonine kinases in vitro. Two kinases, CDPK1 and PKA, which have been implicated in phosphorylation of glideosome proteins, were chosen for this analysis (Table 2).
The phosphorylation of MTRAP and TRAP CTDs expressed as fusion proteins with GST was evaluated in vitro by ^32P incorporation (Fig 1A) and by electrospray (ES) mass spectrometry and collision-induced dissociation (CID) fragmentation analysis. […] Using ES-MS and CID it was determined that both CDPK1 and PKA phosphorylated AMA1 at Ser610 (S1B and S2B Figs), the residue implicated in earlier studies. […] CDPK1 but not PKA phosphorylated EBA140 (Table 2, S2E Fig), the exact sites of which were not determined (S1E Fig). […]
as §1
Non-phosphorylated, phosphorylated and biotinylated polypeptides were analysed by electrospray (ES)-mass spectrometry and collision-induced dissociation (CID) fragmentation pathway analysis. […]

T1 sequence (Q7KQL9 whole entry): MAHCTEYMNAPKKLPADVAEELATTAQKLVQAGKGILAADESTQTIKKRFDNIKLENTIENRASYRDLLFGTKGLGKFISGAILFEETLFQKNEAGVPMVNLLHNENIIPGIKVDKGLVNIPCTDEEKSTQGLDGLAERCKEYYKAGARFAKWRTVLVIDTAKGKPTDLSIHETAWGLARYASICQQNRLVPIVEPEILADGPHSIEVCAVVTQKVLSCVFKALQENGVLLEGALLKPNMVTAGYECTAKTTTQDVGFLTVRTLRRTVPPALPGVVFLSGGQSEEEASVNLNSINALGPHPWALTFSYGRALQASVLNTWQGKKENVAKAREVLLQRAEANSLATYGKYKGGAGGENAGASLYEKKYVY

Substance	increase in affinity for aldolase following phosphorylation (P. falciparum aldolase)	phosphorylation by CK2 in vitro (CK2)	CTD peptide phosphorylation by CDPK1 in vitro (CDPK1)	Kd (P. falciparum aldolase; biolayer interferometry (Octet Red), biotinylated CTD on streptavidin sensor, aldolase 0.05–250 μM, 100 mM Tris-HCl pH 8.0, 25°C, mean of duplicate reactions) [µM]
Biotin-KNSNEPHHIFNIFQKEFSEADNAHSEEKEEYLPVYFDEVEDEVEDEVEDEDENENEVENENEDFNDI [RH4, cytoplasmic domain of RH4, residues 1650–1716]	no increase in affinity	one phosphate group	–	–
Biotin-KNNKQEYDKEQEKQQQNDFVCDNNKMDDKSTQKYGRNQEEVMEIFFDNDYI [RH1 2921–2971]	around 2 fold	–	+	6.1
